Laboratory results published in patent publication EP0565593B1, “REDUCING PESTICIDAL INTERACTIONS IN CROPS” (priority 1990, dated 1992).
Values joined by “and” are separate entries in the source; they are usually repeats but may differ in a detail not shown here. Equal values may be shown once. Read-outs that look alike come from different tables or passages of the source.

Columns and labels:
Corn [1] = assay: Greenhouse test, combination of Procedures II and III: insecticide in-furrow or in cover layer, herbicide and antidote incorporated in cover layer (Examples 1-3, 6; Tables 1-3, 6); format: in vivo; settings: for % Injury Corn: 3 weeks
[2] = system: velvetleaf (Abutilon theophrasti); assay: Greenhouse test, combination of Procedures II and III (Examples 1, 2; Tables 1, 2); format: in vivo; settings: 3 weeks
Shattercane (SHCA) = format: in vivo
Velvetleaf (VELE) [3] = format: in vivo, Abutilon theophrasti
Giant foxtail (GIFT) = assay: whole plant or invertebrate; format: in vivo
Velvetleaf (VELE) [4] = assay: whole plant or invertebrate; format: in vivo, Abutilon theophrasti
Corn [5] = system: Corn
Corn [6] = system: Corn; remark: listed apart in the source
Corn [7] = assay: Greenhouse test Procedure VII: biocide and antidote in furrow, herbicide POE (Examples 39-42, 48-50, 56-58; Tables 38-41, 47-49, 55-57); format: in vivo; settings: Herbicide No. 8 0.28 Kg/Ha POE + COUNTER 15G 227 g/305 m + antidote in furrow
Description: This procedure describes interaction among herbicide, biocide and antidote when the biocide and the antidote is applied to a soil furrow containing crop seed before emergence of the crop and the herbicide is applied after emergence of the crop and weeds. The soil and planting depth was described in Procedure IV. The containers for comparison, the biocide and antidote applications to soil furrows were described in Procedure VI. In this procedure, the seed beds of the first, second, third and fourth containers are covered by soil layers not treated with herbicide. The containers were then placed on a bench in a greenhouse and subirrigated as required for the duration of the test. The herbicide, dispersed or dissolved in water containing 0.25% v/v nonionic surfactant (X-77) was applied by a track sprayer (187 L/ha) to the emerged plants of the second, third and fourth containers about five days after planting. All treatments were run in duplicate. Plant response was observed according to Procedure IV. Variations in this procedure will be noted in the examples.
In this example, tests were conducted according to Procedure VII for the POE application of the herbicides following in-furrow application of COUNTER® 15G insecticide (BIOCIDE No. 1) and the antidote on the pre-planted test seeds. In this test, the herbicides were Nos. 1 (MON-12000), 10 (ALLY®) and #4 (HARMONY®) and the Antidote Nos. 1, 7, 12 and 33.
These in-furrow treatments comprised a 50-50 mix of blended granules of COUNTER with and without 5G granular antidotes at 7.4 + 7.4 mg/cm or 1.1 + 0.37 mg active ingredient (a.i.)/cm. The in-furrow initiation of the test was followed five (5) days later with POE application of the herbicides; observations were made eight (8) days later.
In another test, conducted simultaneously with that in Example 39, Herbicide Nos. 5 (chlorimuron ethyl, active ingredient in CLASSIC® herbicide), 7 (nicosulfuron, active ingredient in ACCENT® herbicide) and 15 (tribenuron methyl, active ingredient in EXPRESS® herbicide) were substituted as test herbicides.
In this example, using the same procedure as above, the following imidazolinone herbicides were used with the same insecticide/biocide and antidotes as above: Herb. No. 16 (imazaquin, a.i. in SCEPTER® herbicide; No. 19 (Code No. AC 222293, a.i. in ASSERT® herbicide); No. 6 (imazethapyr, a.i. in PURSUIT® herbicide and No. 18 (imazapyr, a.i. in ARSENAL® herbicide). Test results are shown in Table 40. Table 40
This example describes the testing of the above antidotes used in Examples 39-41 to safen negative synergy interactions between representative species of the class of herbicidal compounds identified as azolopyrimidine sulfonamides and COUNTER 15G. The same procedure used in the above examples was conducted in this test. In this test, the herbicides were formulated in 17% acetone and 83% water with 0.25% v/v X-77 surfactant.
In these tests (according to Procedure VII) the safeners in solution with acetone were applied in furrow to the soil, followed by COUNTER 15G granules at 227 g/305 m (8 oz./1000'). Applications were made in alternate rows in two separate 13.7 cm x 27.7 cm pans containing Dupo silt loam. Pans were seeded 1.3 cm deep, placed on benches in a greenhouse and subirrigated. BEACON was formulated in water with 0.25% v/v X-77 surfactant and applied by track sprayer at a rate of 187 L/Ha (20 gal/A). Weed species in this test were giant foxtail, shattercane and velvetleaf. The herbicide was applied five (5) days after PPI initiation and observation of test result (shown in Table 47) made eight (8) days later.
In Table 47 COUNTER 15G is abbreviated as "C" and the antidotes as "A" in the column headings which indicate the "C + A" ratios used in the tests. Control and COUNTER treatments are average of four (4) replications and COUNTER + Antidote treatments, average of 2 reps. […]

[8] = Ex. 2: Insecticide 2 3.36 Kg/Ha + Herbicide 2 4.48 Kg/Ha
[9] = […], observed 8 days later (Table 32)
[10] = […], observed 8 days later (Table 33)
[11] = […], PPI, 14 days after PPI (Table 34)
[12] = […], observed 7 days after POE (Table 35)
[13] = […], observed 7 days after POE (Table 36)
[14] = […], observed 9 days later (Table 29)
[15] = […], observed 9 days later (Table 30)
[16] = […], PPI, 13 days after PPI (Table 31)
[17] = Ex. 2: Insecticide 1 (0.23 Kg/Ha) + Herbicide 9 2.24 Kg/Ha
[18] = Ex. 2: Insecticide 2 3.36 Kg/Ha + Herbicide 9 2.24 Kg/Ha
[19] = Table 50, Biocide No. 8 alone 8.96 kg/Ha PPI, no herbicide, no antidote
[20] = Table 51, Biocide No. 8 alone 8.96 kg/Ha PPI, observed 13 days after treatment

CCOCN(C(=O)CCl)c1c(C)cccc1CC [Herbicide No. 2, 2-Chloro-2'-ethyl-6'-methyl-N-(ethoxymethyl)acetanilide, reference compound]
% Injury Corn (Corn [1]; Ex. 2: Insecticide 1 0.23 Kg/305m (ditto mark) + Herbicide 2 4.48 Kg/Ha (so in the source)): 66% and 93% | % Injury Corn (Corn [1]; [8]): 76% | % Injury Corn (Corn [1]; Ex. 3: Herbicide 2 4.48 Kg/Ha): 78% | % Injury Corn (Corn [1]; Ex. 3: Insecticide 3 (227 g) + Herbicide 2 4.48 Kg/Ha): 83% | % Injury Corn (Corn [1]; Ex. 3: Insecticide 4 (227g) + Herbicide 2 4.48 Kg/Ha): 95% | % Injury VELE [2, 8]: 35%

O=C(COC(c1ccccc1)c1ccccc1)Oc1ccccc1 [compound 50]
% Inhibition SHCA (Shattercane (SHCA); [9]): 75% | % Inhibition SHCA (Shattercane (SHCA); [10]): 25% | % Inhibition VELE (Velvetleaf (VELE) [3]; [9]): 80% | % Inhibition VELE (Velvetleaf (VELE) [3]; [10]): 70% | % Inhibition GIFT (Giant foxtail (GIFT); [11]): 70% | % Inhibition VELE (Velvetleaf (VELE) [4]; [11]): 95% | % Inhibition Corn (Corn [5]; [9]): 20% | % Inhibition Corn (Corn [5]; [10]): 45% | % Inhibition Corn (Corn [6]; [11]): 60%

CCSC(=O)COC(c1ccccc1)c1ccccc1 [compound 51]
% Inhibition SHCA (Shattercane (SHCA); [9]): 80% | % Inhibition SHCA (Shattercane (SHCA); [10]): 35% | % Inhibition VELE (Velvetleaf (VELE) [3]; [9]): 85% | % Inhibition VELE (Velvetleaf (VELE) [3]; [10]): 70% | % Inhibition GIFT (Giant foxtail (GIFT); [11]): 65% | % Inhibition VELE (Velvetleaf (VELE) [4]; [11]): 90% | % Corn Inhibition C:A Ratios 5 (Corn [7]; C:A ratio 5): 0% | % Corn Inhibition C:A Ratios 10 (Corn [7]; C:A ratio 10): 5% | % Corn Inhibition C:A Ratios 20 (Corn [7]; C:A ratio 20): 3% | % Corn Inhibition C:A Ratios 40 (Corn [7]; C:A ratio 40): 8% | % Corn Inhibition C:A Ratios 80 (Corn [7]; C:A ratio 80): 10% | % Corn Inhibition C:A Ratios 160 (Corn [7]; C:A ratio 160): 10% | % Inhibition Corn (Corn [5]; [9]): 0% | % Inhibition Corn (Corn [5]; [10]): 30% | % Inhibition Corn (Corn [6]; [11]): 25%

CCOC(=O)COC(c1c(C)cccc1C)c1c(C)cccc1C [compound 58]
% Inhibition SHCA (Shattercane (SHCA); [9]): 70% | % Inhibition SHCA (Shattercane (SHCA); [10]): 30% | % Inhibition VELE (Velvetleaf (VELE) [3]; [9]): 85% | % Inhibition VELE (Velvetleaf (VELE) [3]; [10]): 70% | % Inhibition GIFT (Giant foxtail (GIFT); [11]): 60% | % Inhibition VELE (Velvetleaf (VELE) [4]; [11]): 90% | % Inhibition Corn (Corn [5]; [9]): 55% | % Inhibition Corn (Corn [5]; [10]): 45% | % Inhibition Corn (Corn [6]; [11]): 30%

Cc1csc(=NC(C)c2ccccc2)s1 (stereo not shown) [compound 69]
% Inhibition SHCA (Shattercane (SHCA); [12]): 75% | % Inhibition SHCA (Shattercane (SHCA); [13]): 40% | % Inhibition VELE (Velvetleaf (VELE) [3]; [12]): 80% | % Inhibition VELE (Velvetleaf (VELE) [3]; [13]): 70% | % Inhibition GIFT (Giant foxtail (GIFT); in vivo): 70% | % Inhibition VELE (Velvetleaf (VELE) [4]; in vivo): 90% | % Inhibition Corn (Corn [5]; [12]): 30% | % Inhibition Corn (Corn [5]; [13]): 50% | % Inhibition Corn (Corn [6]; in vivo): 35%

O=C(C(Cl)Cl)N1CCc2ccccc2C1c1ccccc1 (stereo not shown) [compound 40]
% Inhibition SHCA (Shattercane (SHCA); [14]): 85% | % Inhibition SHCA (Shattercane (SHCA); [15]): 40% | % Inhibition VELE (Velvetleaf (VELE) [3]; [14]): 90% | % Inhibition VELE (Velvetleaf (VELE) [3]; [15]): 70% | % Inhibition GIFT (Giant foxtail (GIFT); [16]): 70% | % Inhibition VELE (Velvetleaf (VELE) [4]; [16]): 85% | % Inhibition Corn (Corn [5]; [14]): 45% | % Inhibition Corn (Corn [5]; [15]): 35% | % Inhibition Corn (Corn [6]; [16]): 60%

CCNc1nc(Cl)nc(NC(C)C)n1 [Herbicide No. 9, 2-Chloro-4-(ethylamino)-6-(isopropylamino)-S-triazine, reference compound]
% Injury Corn (Corn [1]; [17]): 3% | % Injury Corn (Corn [1]; [18]): 0% | injury to corn (Corn [1]; Ex. 2: combination of the insecticides (Nos. 1, 2) with atrazine): did not appear to be any significant injury | % Injury Corn (Corn [1]; Ex. 3: Herbicide 9 2.24 Kg/Ha): 0% | % Injury Corn (Corn [1]; Ex. 3: Insecticide 3 (227 g) + Herbicide 9 2.24 Kg/Ha): 0% | % Injury Corn (Corn [1]; Ex. 3: Insecticide 4 (227 g) + Herbicide 9 2.24 Kg/Ha): 0% | % Injury VELE [2, 17]: 88% | % Injury VELE [2, 18]: 30%

CC1Cc2ccccc2C(C)N1C(=O)C(Cl)Cl (stereo not shown) [compound 26]
% Inhibition SHCA (Shattercane (SHCA); [14]): 70% | % Inhibition SHCA (Shattercane (SHCA); [15]): 35% | % Inhibition VELE (Velvetleaf (VELE) [3]; [14]): 90% | % Inhibition VELE (Velvetleaf (VELE) [3]; [15]): 75% | % Inhibition GIFT (Giant foxtail (GIFT); [16]): 75% | % Inhibition VELE (Velvetleaf (VELE) [4]; [16]): 80% | % Inhibition Corn (Corn [5]; [14]): 40% | % Inhibition Corn (Corn [5]; [15]): 50% | % Inhibition Corn (Corn [6]; [16]): 65%

O=C(COC(c1ccccc1)c1ccccc1)OCc1ccoc1 [compound 55]
% Inhibition SHCA (Shattercane (SHCA); [9]): 75% | % Inhibition SHCA (Shattercane (SHCA); [10]): 25% | % Inhibition VELE (Velvetleaf (VELE) [3]; [9]): 85% | % Inhibition VELE (Velvetleaf (VELE) [3]; [10]): 70% | % Inhibition GIFT (Giant foxtail (GIFT); [11]): 65% | % Inhibition VELE (Velvetleaf (VELE) [4]; [11]): 90% | % Inhibition Corn (Corn [5]; [9]): 25% | % Inhibition Corn (Corn [5]; [10]): 50% | % Inhibition Corn (Corn [6]; [11]): 45%

CCCSP(=O)(OCC)SCCC [Biocide No. 8, O-Ethyl-S,S-dipropyl phosphorothioate, reference compound]
% Inhibition SHCA (Shattercane (SHCA); [19]): 85% | % Inhibition VELE (Velvetleaf (VELE) [3]; [19]): 15% | % Inhibition GIFT (Giant foxtail (GIFT); [20]): 90% | % Inhibition VELE (Velvetleaf (VELE) [4]; [20]): 20% | corn injury (Corn [5]; MOCAP alone at 8.96 kg/ha, Example 51): corn stunting, leaf malformations and stand loss | % Inhibition Corn (Corn [5]; [19]): 30% | corn injury (Corn [6]; MOCAP applied alone, PPI, Example 52): significant corn injury | % Inhibition Corn (Corn [6]; [20]): 30%
